According to PMC6837752, “Effectiveness of four types of neuraminidase inhibitors approved in Japan for the treatment of influenza” (PLoS ONE, 2019):
pIC50: −log10 of the molar value. Values joined by “and” are separate entries in the source; they are usually repeats but may differ in a detail not shown here. Equal entries are not always repeated.

What was measured:
[1] = system: H275Y mutated (oseltamivir-resistant) influenza A/H1N1pdm09 virus; conditions: human, in vivo
[2] = system: oseltamivir and peramivir-resistant influenza A/H1N1pdm09; conditions: five cases, treatment with oseltamivir or peramivir; cited from earlier work
[3] = biological target: neuraminidase of H275Y mutated influenza A/H1N1pdm09 virus isolates (Influenza A virus (H1N1pdm09), UniProt C3W5S3, H275Y); type: biochemical; conditions: read-out: 50% inhibitory concentration

Molecule	Time to fever alleviation [1] [h]	Time until fever subsided from the start of treatment [2] [h]	other results
[H]/N=C(\N)N[C@H]1C=C(C(=O)O)O[C@@H]([C@H](OC)[C@H](O)CO)[C@@H]1NC(C)=O [Laninamivir, laninamivir]	≤ 48		
CCOC(=O)C1=C[C@@H](OC(CC)CC)[C@H](NC(C)=O)[C@@H](N)C1 [Oseltamivir, oseltamivir]		≤ 48	Average fever duration [1]: 89 h and 89 ± 47 h; Patients with fever alleviated within 48 hours [1]: 40%; Patients with prolonged fever, which continued for more than 100 hours [1]: 60%
CC(=O)N[C@H]1[C@H]([C@H](O)[C@H](O)CO)OC(C(=O)O)=C[C@@H]1N=C(N)N [Zanamivir, zanamivir]	≤ 48		
peramivir		≤ 48	pIC50 [3]: 7.61 and 7.66 and 7.53 and 7.72 and 7.73 and 7.65 and 7.63
